Several values for one entry are separate records, joined by “and”; a condition that tells them apart may be missing. Identical values can stand only once.
What was measured:
SCPMA = assay: Example II in-water applied, greenhouse, transplanted paddy rice weeds; format: in vivo, Schoenoplectus maritimus (L.) Lye
Description: (§1) Weed seeds or nutlets of the desired test plant species were planted in puddled soil (mud) prepared by mixing a shredded, non-sterilized mineral soil (50.5 percent silt, 25.5 percent clay, and 24 percent sand, with a pH of about 7.6 and an organic matter content of about 2.9 percent) and water at a 1:1 volumetric ratio. The prepared mud was dispensed in 365 mL aliquots into 16-ounce (oz.) non-perforated plastic pots with a surface area of 86.59 square centimeters (cm^2) leaving a headspace of 3 centimeters (cm) in each pot. Mud was allowed to dry overnight prior to planting or transplanting. Rice seeds were planted in Sun Gro MetroMix® 306 planting mixture, which typically has a pH of 6.0 to 6.8 and an organic matter content of about 30 percent, in plastic plug trays. Seedlings at the second or third leaf stage of growth were transplanted into 860 mL of mud contained in 32-oz. non-perforated plastic pots with a surface area of 86.59 cm^2 4 days prior to herbicide application. The paddy was created by filling the headspace of the pots with 2.5 to 3 cm of water. […] The plants were grown for 4-22 days in a greenhouse with an approximate 14 hr. photoperiod which was maintained at about 29° C. during the day and 26° C. during the night. Nutrients were added as Osmocote® (19:6:12, N:P:K+minor nutrients) at 2 g per 16-oz. pot and 4 g per 32-oz. pot. Water was added on a regular basis to maintain the paddy flood, and supplemental lighting was provided with overhead metal halide 1000-Watt lamps as necessary. The plants were employed for testing when they reached the first through fourth true leaf stage.
(§2) Treatments consisted of the acid or esters of 4-amino-3-chloro-5-fluoro-6-(4-chloro-2-fluoro-3-methoxy-phenyl)pyridine-2-carboxylic acid (compound A) each formulated as an SC (suspension concentrate) and various herbicidal components alone and in combination.
(§3) For formulated compounds, a measured amount was placed in an individual 100 or 200 mL glass vial and was dissolved in a volume of 1.25% (v/v) Agri-Dex® crop oil concentrate to obtain application solutions.
(§4) Applications were made by injecting with a pipetter appropriate amounts of the application solutions, individually and sequentially, into the aqueous layer of the paddy. Control plants were treated in the same manner with the solvent blank. Applications were made so that all treated plant material received the same concentrations of acetone and crop oil concentrate.
(§5) The treated plants and control plants were placed in a greenhouse as described above and water was added as needed to maintain a paddy flood. After approximately 3 weeks the condition of the test plants as compared with that of the untreated plants was determined visually and scored on a scale of 0 to 100 percent where 0 corresponds to no injury or growth inhibition and 100 corresponds to complete kill.
(§6) Colby's equation was used to determine the herbicidal effects expected from the mixtures (Colby, S. R. 1967. Calculation of the synergistic and antagonistic response of herbicide combinations. Weeds 15:20-22.).
(§7) The following equation was used to calculate the expected activity of mixtures containing two active ingredients, A and B: Expected=A+B−(A×B/100)

ECHOR = assay: as above; format: in vivo, Echinochloa oryzoides (Ard.) Fritsch
Description: as §1, §2, §3, §4, §5, §6, §7

AVEFA = assay: Example III postemergence foliar-applied, greenhouse, weeds common to row crops such as corn and soybeans; format: in vivo, Avena fatua L.
Source text: Seeds or nutlets of the desired test plant species were planted in a soil matrix prepared by mixing a loam or sandy loam soil (e.g., 28.6 percent silt, 18.8 percent clay, and 52.6 percent sand, with a pH of about 5.8 and an organic matter content of about 1.8 percent) and calcareous grit in an 80 to 20 ratio. The soil matrix was contained in plastic pots with a surface area of 84.6 square centimeters (cm^2) and a volume of 560 cubic centimeters (cm^3). When required to ensure good germination and healthy plants, a fungicide treatment and/or other chemical or physical treatment was applied. The plants were grown for 7-31 days (d) in a greenhouse with an approximate 15 hour (h) photoperiod which was maintained at about 23-29° C. during the day and 22-28° C. during the night. Nutrients (Peters Excel® 15-5-15 5-Ca 2-Mg) and water were added on a regular basis and supplemental lighting was provided with overhead metal halide 1000-Watt lamps as necessary. The plants were employed for testing when they reached the first, second, or third true leaf stage.
Treatment requirements were calculated based upon the rates being tested, the concentration of active ingredient or acid equivalent in the formulation, and a 12 mL application volume at a rate of 187 L/ha.
Treatments consisted of the acid or esters of 4-amino-3-chloro-5-fluoro-6-(4-chloro-2-fluoro-3-methoxy-phenyl)pyridine-2-carboxylic acid (Compound A), each formulated as an SC (suspension concentrate), and various herbicidal components alone and in combination.
Other herbicidal components were applied on an acid equivalent basis and included acetyl coA carboxylase (ACCase)-inhibiting herbicide (cyclohexanedione and aryloxyphenoxypropionate chemical classes) quizalofop-p-ethyl formulated as Assure® II.
All stock solutions and applications solutions were visually inspected for compound compatibility prior to application. Compound requirements are based upon a 12 mL application volume at a rate of 187 liters per hectare (L/ha). Formulated compounds were applied to the plant material with an overhead Mandel track sprayer equipped with 8002E nozzles calibrated to deliver 187 L/ha over an application area of 0.503 square meters (m^2) at a spray height of 18 to 20 inches (46 to 50 cm) above the average plant canopy height. Control plants were sprayed in the same manner with the solvent blank.
as §5, with “watered by sub-irrigation” for “water was added as needed”, “prevent wash-off of the test compounds.” for “maintain a paddy flood.”, “2 weeks,” for “3 weeks”
as §6, §7

Compound: C[C@@H](Oc1ccc(Oc2nc3ccc(Cl)cc3o2)cc1)C(=O)N(C)c1ccccc1F [Metamifop, (2R)-2-[4-[(6-chloro-2-benzoxazolyl)oxy]phenoxy]-N-(2-fluorophenyl)-N-methylpropanamide]
- Visual Weed Control (%) - 21 DAA SCPMA Obs (SCPMA; 75 gai/ha): 0%
- Visual Weed Control (%) - 21 DAA SCPMA Obs (SCPMA; 150 gai/ha): 0%
- Visual Weed Control (%) - 21 DAA ECHOR Obs (ECHOR; in-water, 50 gai/ha): 20%

Compound: CCC/C(=N\OCC(C)Oc1ccc(Cl)cc1)C1=C(O)CC(C2CCCSC2)CC1=O (stereo not shown) [Profoxydim, 2-[1-[[2-(4-chlorophenoxy)propoxy]imino]butyl]-3-hydroxy-5-(tetrahydro-2H-thiopyran-3-yl)-2-cyclohexen-1-one, reference compound]
- Visual Weed Control (%) - 21 DAA ECHOR Obs (ECHOR; in-water, 25 gai/ha): 0%

Compound: COc1c(Cl)ccc(-c2nc(C(=O)OCc3ccccc3)c(Cl)c(N)c2F)c1F [Compound A Benzyl Ester, benzyl ester of 4-amino-3-chloro-5-fluoro-6-(4-chloro-2-fluoro-3-methoxy-phenyl)pyridine-2-carboxylic acid]
- Visual Weed Control (%) - 19 DAA SCPMA Obs (SCPMA; 35 gae/ha): 0%
- Visual Weed Control (%) - 14 DAA AVEFA Obs (AVEFA; Compound A Benzyl Ester 3.75 gae/ha): 10%
- Visual Weed Control (%) - 14 DAA AVEFA Obs (AVEFA; Compound A Benzyl Ester 7.5 gae/ha): 0%
- Visual Weed Control (%) - 14 DAA AVEFA Obs (AVEFA; Compound A Benzyl Ester 15 gae/ha): 10%
- Visual Weed Control (%) - 21 DAA ECHOR Obs (ECHOR; in-water, 4.38 gae/ha): 0%
- Visual Weed Control (%) - 21 DAA ECHOR Obs (ECHOR; in-water, 8 gae/ha): 10% and 8%
- Visual Weed Control (%) - 21 DAA ECHOR Obs (ECHOR; in-water, 8.75 gae/ha): 10% and 15%
- Visual Weed Control (%) - 25 DAA ECHOR Obs (ECHOR; in-water, 8.75 gae/ha): 85%
- Visual Weed Control (%) - 25 DAA ECHOR Obs (ECHOR; in-water, 17.5 gae/ha): 90%
- Visual Weed Control (%) - 25 DAA ECHOR Obs (ECHOR; in-water, 35 gae/ha): 100%
- Visual Weed Control (%) - 21 DAA ECHOR Obs (ECHOR; in-water, 48 gae/ha): 78%
- Visual Weed Control (%) - 21 DAA ECHOR Obs (ECHOR; in-water, 96 gae/ha): 80%

Compound: COc1c(Cl)ccc(-c2nc(C(=O)O)c(Cl)c(N)c2F)c1F [Compound A Acid, 4-amino-3-chloro-6-(4-chloro-2-fluoro-3-methoxyphenyl)-5-fluoropyridine-2-carboxylic acid]
- Visual Weed Control (%) - 21 DAA SCPMA Obs (SCPMA; 35 gae/ha): 0%
- Visual Weed Control (%) - 14 DAA AVEFA Obs (AVEFA; Compound A Acid 3.75 gae/ha): 0%
- Visual Weed Control (%) - 14 DAA AVEFA Obs (AVEFA; Compound A Acid 7.5 gae/ha): 0%
- Visual Weed Control (%) - 14 DAA AVEFA Obs (AVEFA; Compound A Acid 15 gae/ha): 0%
- Visual Weed Control (%) - 25 DAA ECHOR Obs (ECHOR; 8.75 gae/ha in-water): 0%
- Visual Weed Control (%) - 25 DAA ECHOR Obs (ECHOR; 17.5 gae/ha in-water): 0%
- Visual Weed Control (%) - 25 DAA ECHOR Obs (ECHOR; 35 gae/ha in-water): 40%
- Visual Weed Control (%) - 21 DAA ECHOR Obs (ECHOR; in-water, 8.75 gae/ha): 0%
- Visual Weed Control (%) - 21 DAA ECHOR Obs (ECHOR; in-water, 10.6 gae/ha): 0%
- Visual Weed Control (%) - 21 DAA ECHOR Obs (ECHOR; in-water, 21.2 gae/ha): 15%
- Visual Weed Control (%) - 21 DAA ECHOR Obs (ECHOR; in-water, 35 gae/ha): 15% and 30%
- Visual Weed Control (%) - 21 DAA ECHOR Obs (ECHOR; in-water, 42.4 gae/ha): 15%
- Visual Weed Control (%) - 21 DAA ECHOR Obs (ECHOR; in-water, Compound A Acid 8.75 gae/ha): 10%
- Visual Weed Control (%) - 21 DAA ECHOR Obs (ECHOR; in-water, Compound A Acid 17.5 gae/ha): 15%
- Visual Weed Control (%) - 21 DAA ECHOR Obs (ECHOR; in-water, Compound A Acid 35 gae/ha): 20%

Compound: CCCCOC(=O)[C@@H](C)Oc1ccc(Oc2ccc(C#N)cc2F)cc1 [Cyhalofop-butyl, butyl(2R)-2-[4-(4-cyano-2-fluorophenoxy)phenoxy]propanoate, reference compound]
- Visual Weed Control (%) - 19 DAA SCPMA Obs (SCPMA; 180 gai/ha): 0%
- Visual Weed Control (%) - 25 DAA ECHOR Obs (ECHOR; 90 gai/ha, in-water): 0%
- Visual Weed Control (%) - 25 DAA ECHOR Obs (ECHOR; in-water, 90 gai/ha): 0%

Compound: CCOC(=O)[C@@H](C)Oc1ccc(Oc2cnc3cc(Cl)ccc3n2)cc1 [Quizalofop-p-ethyl, ethyl(2R)-2-[4-[(6-chloro-2-quinoxalinyl)oxy]phenoxy]propanoate, reference compound]
- Visual Weed Control (%) - 14 DAA AVEFA Obs (AVEFA; Quizalofop-p-ethyl 14.25 gae/ha): 40%
- Visual Weed Control (%) - 21 DAA ECHOR Obs (ECHOR; in-water, 15 gai/ha): 0%
- Visual Weed Control (%) - 21 DAA ECHOR Obs (ECHOR; in-water, 30 gai/ha): 60%

From patent US9232796B2, “Herbicidal compositions comprising 4-amino-3-chloro-5-fluoro-6-(4-chloro-2-fluoro-3-methoxyphenyl) pyridine-2-carboxylic acid or a derivative thereof and acetyl-CoA carboxylase (ACCase) inhibitors” (DOW AGROSCIENCES LLC, priority 2012, dated 2016)
